24 compounds from patent US20060084688A1, “Aromatic sulfone hydroxamic acid metalloprotease inhibitor” (priority 1997, published 2006) can be followed below.

Where a name gives a salt, the structure may show the parent alone.

For the first data set the following is noted: Rat Intraveneous, 20 mpk.
Compound `CC(=O)N1CCC(C(=O)NO)(S(=O)(=O)c2ccc(Sc3ccccc3)cc2)CC1.Cl` [Example 36, 1-acetyl-N-hydroxy-4-[[4-(phenylthio)phenyl]sulfonyl]-4-piperidinecarboxamide, monohydrochloride] had a t1/2 of 0.65 h. `C#CCN1CCC(C(=O)NO)(S(=O)(=O)c2ccc(Oc3ccc(C)c(C)c3)cc2)CC1.Cl` [Example 43, 4-[[4-(3,4-Dimethylphenoxyl)phenyl]sulfonyl]-N-hydroxy-1-(2-propynyl)-4-piperidinecarboxamide, monhydrochloride]: the t1/2 is 0.82 h. `Cl.O=C(NO)C1(S(=O)(=O)c2ccc(Oc3ccc(-n4cncn4)cc3)cc2)CCS(=O)(=O)CC1` [Example 53, Tetrahydro-N-hydroxy-4-[[4-[4-(1H-1,2,4-triazol-1-yl)phenoxy]-phenyl]-sulfonyl]-2H-thiopyran-4-carboxamide 1,1-dioxide, monohydrochloride] yielded a t1/2 of 0.97 h. `C#CCN1CCC(C(=O)NO)(S(=O)(=O)c2ccc(Oc3ccc(Cl)c(C)c3)cc2)CC1.Cl` [Example 81, 4-[(4-(4-chloro-3-methylphenoxy)phenyl]sulfonyl]-N-hydroxy-1-(2-propynyl)-4-piperidinecarboxamide, monohydrochloride] returned a t1/2 of 0.76 h. Still for that read-out and setting: the result for `Cl.O=C(NO)C1(S(=O)(=O)c2ccc(Oc3ccc(Cl)cc3)cc2)CCNCC1` [Example 93, 4-[[4-(4-chlorophenoxy)-phenyl]sulfonyl]-N-hydroxy-4-piperidinecarboxamide, monohydrochloride] reads 1.81 h; that for `O=C(NO)C1(S(=O)(=O)c2ccc(Oc3ccccc3)cc2)CCOCC1` [Example 94, Tetrahydro-N-hydroxy-4-[(4-phenoxyphenyl)sulfonyl]-2H-pyran-4-carboxamide], 1.71 h. Turning to `Cl.O=C(NO)C1(S(=O)(=O)c2ccc(Oc3ccc(-n4ccnc4)cc3)cc2)CCOCC1` [Example 99, tetrahydro-N-hydroxy-4-[[4-[4-(1H-imidazol-1-yl)phenoxy]phenyl]-sulfonyl]-2H-pyran-4-carboxamide, monohydrochloride], the t1/2 is 0.68 h. On to `O=C(NO)C1(S(=O)(=O)c2ccc(Oc3ccc(Cl)cc3)cc2)CCOCC1` [Example 100, 4-[[4-(4-chlorophenoxy)-phenyl]sulfonyl]-tetrahydro-N-hydroxy-2H-pyran-4-carboxamide], for which the t1/2 came to 1.50 h.

As for `O=C(NO)C1(S(=O)(=O)c2ccc(Sc3ccc(F)cc3)cc2)CCOCC1` [Example 103, 4-[[4-[(4-fluorophenyl)-thio]phenyl]sulfonyl]tetrahydro-N-hydroxy-2H-pyran-4-carboxamide], the t1/2 stood at 1.10 h. `Cl.O=C(NO)C1(S(=O)(=O)c2ccc(Sc3ccncc3)cc2)CCOCC1` [Example 104, Tetrahydro-N-hydroxy-4-[[4-(4-pyridinylthio)phenyl]sulfonyl]-2H-pyran-4-carboxamide, monohydrochloride] gave a t1/2 of 0.66 h.

In turn, `O=C(NO)C1(S(=O)(=O)c2ccc(Oc3ccccc3)cc2)CCSCC1` [Example 109] yielded a t1/2 of 1.12 h. `O=C(NO)C1(S(=O)(=O)c2ccc(Oc3ccccc3)cc2)CC[S+]([O-])CC1` (stereo not shown) [Example 111] yielded a t1/2 of 0.65 h.

Compound `Nc1ccc(Sc2ccc(S(=O)(=O)C3(C(=O)NO)CCSCC3)cc2)cc1` [Example 115, tetrahydro-N-hydroxy-4-[[4-[4-aminophenyl)thiophenoxy]phenyl]sulfonyl 2H-thionyran-4-carboxamide] gave a t1/2 of 1.36 h. Consider `O=C(O)CNc1ccc(Oc2ccc(S(=O)(=O)C3(C(=O)NO)CCSCC3)cc2)cc1` [Example 117, tetrahydro-N-hydroxy-4-[[4-[4-hydroxyphenylglycine)]phenyl]sulfonyl 2H-thionyran-4-carboxamide], for which the t1/2 turned out to be 0.78 h. As to `NCC(=O)Nc1ccc(Sc2ccc(S(=O)(=O)C3(C(=O)NO)CCSCC3)cc2)cc1` [Example 118], the t1/2 turned out to be 1.85 h. Turning to `CC(C)c1ccc(Oc2ccc(S(=O)(=O)C3(C(=O)NO)CCOCC3)cc2)cc1` [Example 125, tetrahydro-N-hydroxy-4-[[4-[4-(1-methylethyl)phenoxy]phenyl]-sulfonyl]-2H-pyran-4-carboxamide], the t1/2 worked out at 0.73 h. The compound `O=C(NO)C1(S(=O)(=O)c2ccc(Oc3ccc(SC(F)(F)F)cc3)cc2)CCOCC1` [Example 382, Tetrahydro-N-hydroxy-4-[[4-[4-[(trifluoromethyl)thio]phenoxy]phenyl]-sulfonyl]-2H-pyran-4-carboxamide] yielded a t1/2 of 1.71 h. Take `O=C(NO)C1(S(=O)(=O)c2ccc(Oc3ccc(C(F)(F)F)cc3)cc2)CCN(CCN2CCOCC2)CC1` [Example 388, N-hydroxy-1-[2-(4-morpholinyl)-ethyl]-4-[(4-(4-(trifluoromethyl)phenoxy]-phenyl]sulfonyl]-4-piperidinecarboxamide, dihydrochloride]: the t1/2 was 0.94 h. Same read-out and setting: the result for `O=C(NO)C1(S(=O)(=O)c2ccc(Oc3ccc(C(F)(F)F)cc3)cc2)CCN(Cc2cccnc2)CC1` [Example 390, N-hydroxy-1-(3-pyridinylmethyl)-4-[[4-(4-trifluoromethyl)phenoxy]phenyl]-sulfonyl]-4-piperidinecarboxamide, dihydrochloride] reads 1.50 h. For `O=C(NO)C1(S(=O)(=O)c2ccc(Oc3ccc(C(F)(F)F)cc3)cc2)CCN(Cc2ccccn2)CC1` [Example 391, N-hydroxy-1-(2-pyridinylmethyl)-4-[[4-[4-(trifluoromethyl)phenoxy]phenyl]-sulfonyl]-4-piperidinecarboxamide, dihydrochloride], the t1/2 amounted to 1.45 h. Same read-out and setting: in the case of `Cl.O=C(NO)C1(S(=O)(=O)c2ccc(Oc3ccc4c(c3)OCCO4)cc2)CCN(C2CC2)CC1` [Example 408, 1-cyclopropyl-4-[[4-[(2,3-dihydro-1,4-benzodioxin-6-yl)oxy]phenyl]-sulfonyl]-N-hydroxy-4-piperidine-carboxamide, monohydrochloride] it was 3.30 h; in that of `Cl.O=C(NO)C1(S(=O)(=O)c2ccc(Oc3ccc(OC(F)(F)F)cc3)cc2)CCNCC1` [Example 410, N-hydroxy-4-[[4-[(trifluoromethoxy)phenoxy]phenyl]sulfonyl]-4-piperidinecarboxamide, monohydrochloride], 1.78 h.

Turning to `C#CCN1CCC(C(=O)NO)(S(=O)(=O)c2ccc(Oc3ccc(C(C)C)cc3)cc2)CC1.Cl` [Example 414, N-hydroxy-4-[[4-[4-(1-methylethyl)phenoxy]phenyl]sulfonyl]-1-(2-propynyl)-4-piperidinecarboxamide, monohdyrochloride], the t1/2 was 0.73 h. The same measure, in the same setting: the result for `COCCN1CCC(C(=O)NO)(S(=O)(=O)c2ccc(Oc3ccc(OC(F)(F)F)cc3)cc2)CC1.Cl` [Example 416, N-hydroxy-1-(2-methoxyethyl)-4-[[4-[4-(trifluoro-methoxy)phenoxy]phenyl]sulfonyl}-4-piperidinecarboxamide, monohydrochloride] reads 2.94 h.

The data set is the same for the next values; noted with them: Rat Oral, 20 mpk, 6 hr.
As for `Cl.O=C(NO)C1(S(=O)(=O)c2ccc(Oc3ccc(-n4cncn4)cc3)cc2)CCS(=O)(=O)CC1` [Example 53, Tetrahydro-N-hydroxy-4-[[4-[4-(1H-1,2,4-triazol-1-yl)phenoxy]-phenyl]-sulfonyl]-2H-thiopyran-4-carboxamide 1,1-dioxide, monohydrochloride], the “Blood Level @ 6 hr” value is “BLD”.
